The source made the active and inactive calls. The calls are words filed in the database; no cut-off is given here.
Tests used:
[1] = molecular target: T1, Tyrosinase (Agaricus bisporus) (UniProt O42713); experiment: Inhibition of mushroom tyrosinase using L-DOPA as substrate at 50 uM after 10 mins by UV absorbance method
T1 sequence (whole entry): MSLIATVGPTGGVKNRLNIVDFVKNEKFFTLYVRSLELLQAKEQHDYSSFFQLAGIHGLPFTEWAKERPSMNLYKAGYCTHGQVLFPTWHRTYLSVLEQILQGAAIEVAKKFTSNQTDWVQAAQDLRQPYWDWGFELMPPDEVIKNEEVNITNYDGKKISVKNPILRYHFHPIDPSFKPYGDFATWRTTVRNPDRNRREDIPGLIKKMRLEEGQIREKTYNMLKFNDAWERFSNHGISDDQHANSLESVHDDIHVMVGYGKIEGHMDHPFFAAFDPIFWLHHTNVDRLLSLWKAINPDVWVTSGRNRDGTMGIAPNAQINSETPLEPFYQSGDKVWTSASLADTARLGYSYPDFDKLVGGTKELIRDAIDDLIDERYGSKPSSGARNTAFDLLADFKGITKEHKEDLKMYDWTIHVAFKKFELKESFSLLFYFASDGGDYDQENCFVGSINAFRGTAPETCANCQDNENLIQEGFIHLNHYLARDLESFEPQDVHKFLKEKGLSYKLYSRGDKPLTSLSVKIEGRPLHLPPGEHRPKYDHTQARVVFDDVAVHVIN

[2] = tested on: Radical scavenging activity; experiment: Antioxidant activity assessed as DPPH free radical scavenging activity at 1.85 mM after 10 mins relative to control; type: functional
[3] = Antioxidant activity against linoleic acid lipid peroxidation at 90 uM by ferric thiocyanate method; type: functional
[4] = Antioxidant activity against linoleic acid lipid peroxidation at 90 uM after 48 hrs by ferric thiocyanate method; type: functional
[5] = Cytotoxicity against mouse Mel-Ab cells up to 200 uM after 24 hrs by crystal violet staining based ELISA; type: cell-based
[6] = tested on: Mel-Ab; experiment: Inhibition of melanogenesis in mouse Mel-Ab cells assessed as reduction of melanin production at 100 uM after 4 days by ELISA reader; type: functional, cell-based

Row | Structure (SMILES) | inhibition [1] | Activity [2] [%] | further results
1 | O=C(/C=C/c1ccc(O)c(O)c1)NC(Cc1ccccc1)C(=O)NO (stereo not drawn) | Active |  | 
2 | O=C(O)/C=C/c1ccc(O)c(O)c1 | inactive | 52.4 | 
3 | O=C(/C=C/c1ccc(O)c(O)c1)NCC(=O)NO | Active | 39.4 | 
4 | O=C(/C=C/c1ccc(O)c(O)c1)N[C@H](C(=O)NO)c1ccccc1 |  | 56.2 | 
5 | O=C(NO)[C@@H]1CCCN1C(=O)/C=C/c1ccc(O)c(O)c1 | Active | 77.2 | Activity [3]: Active; Activity [4]: Active; Activity [5]: Non-toxic; inhibition [6]: Active
6 | C[C@H](NC(=O)/C=C/c1ccc(O)c(O)c1)C(=O)NO | Active | 40.7 | 
7 | O=C(/C=C/c1ccc(O)c(O)c1)N[C@H](Cc1ccccc1)C(=O)NO |  | 47.6 | 
8 | CC(C)C[C@H](NC(=O)/C=C/c1ccc(O)c(O)c1)C(=O)NO | Active | 51.1 | 
9 | O=C(O)[C@@H]1CCCN1C(=O)/C=C/c1ccc(O)c(O)c1 |  | 20 | Activity [3]: Active; Activity [4]: Active
10 | O=C(/C=C/c1ccc(O)c(O)c1)NCCC(=O)NO | Active | 42.2 | 
11 | O=C(/C=C/c1ccc(O)c(O)c1)N[C@@H](Cc1ccccc1)C(=O)NO |  | 40.9 | 

Reference: ChEMBL document CHEMBL1821592, “Dual effects of caffeoyl-amino acidyl-hydroxamic acid as an antioxidant and depigmenting agent” (Bioorg Med Chem Lett, 2011)
